Molecules are shown by their SMILES. Calls of active or inactive are those of the source. No rule for the calls is given here. Residues, ends and D or L forms follow the SMILES beside them.

One may read the Kd as the equilibrium constant for the complex coming apart.

Sequence of Serine/threonine-protein kinase mTOR (Homo sapiens) (P42345 2015-2114): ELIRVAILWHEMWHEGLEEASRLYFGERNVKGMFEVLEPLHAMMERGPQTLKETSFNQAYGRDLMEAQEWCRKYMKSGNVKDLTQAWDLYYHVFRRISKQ

This assay addresses Serine/threonine-protein kinase mTOR (Homo sapiens) (UniProt P42345). The assay is described as follows: binders of mTOR FRB domain, biophysical, NMR (AID 1648). Particulars: NMR binding to FRB domain, chemical shift.
For `Cc1cc(=O)n2nc(-c3ccccc3)sc2n1`, the Kd is > 4 mM (inactive). For `O=C1O[C@H](C(O)CO)C(O)=C1O` (some centres not stated) the value was > 4 mM (inactive); for `N#CCSc1nc(-c2ccccc2)cs1`, > 4 mM (inactive). `Cc1n[nH]c(C)c1CN`: the Kd is > 4 mM (inactive). The figure for `Cc1ccc(=O)[nH]c1` is > 4 mM (inactive); for `Cn1ccnc1C(O)c1ccccc1` (configuration not stated) it is > 4 mM (inactive). The figure for `Cc1occc1C(=O)Nc1cc(C(C)(C)C)on1` is > 4 mM (inactive); for `COc1ccc(C2NC(C(=O)O)CS2)cc1` (configuration not stated) it is > 4 mM (inactive); for `Oc1cc(O)cc(/C=C/c2ccccc2)c1` it is > 4 mM (inactive). The figure for `Cc1nc2ccccc2c(=O)n1-c1cccc(O)c1` is > 4 mM (inactive); for `CC(=O)OC1CC[C@@]2(C)C(CCC3C2CC[C@]2(C)C(C4=CC(=O)OC4)C(OC(C)=O)CC32O)C1` (some centres not stated) it is > 4 mM (inactive). For the molecule `CSCCNC(C)=O`, the Kd was > 4 mM (inactive).

On to `Cc1c(-c2ccc(F)cc2)[n+](=O)c2c(n1[O-])CCC2`, for which the Kd was > 4 mM (inactive). Turning to `NCCNC(=S)Nc1ccccc1`, the Kd was > 4 mM (inactive).

Take `O=C1NC(=O)C(Cc2cccs2)C(=O)N1`: the Kd was > 4 mM (inactive). For `CC(=O)N[C@@H](CC(=O)O)C(=O)N[C@@H](CCC(=O)O)C(=O)O` (Ac-Asp-Glu-OH) the value was > 4 mM (inactive); for `COC(=O)c1ccc2nccnc2c1`, > 4 mM (inactive).

Regarding `Nc1cccc(NC(=O)c2cccs2)c1`, the Kd was > 4 mM (inactive). For `Cc1cc(C)n(S(=O)(=O)c2ccc(C)c(C)c2C)n1` the value was > 4 mM (inactive); for `Cc1cc(NC(=O)Cc2cccs2)no1`, > 4 mM (inactive). The figure for `CC(O)C(=O)N/N=C/c1cccs1` (configuration not stated) is > 4 mM (inactive); for `CC1CC2(NC(=O)NC2=O)C(C)CN1C` (configuration not stated) it is > 4 mM (inactive); for `CN(C)/C=N/S(=O)(=O)c1ccccc1` it is > 4 mM (inactive).

Regarding `Cc1cc(S(=O)(=O)N2CCOCC2)ccc1F`, the Kd was > 4 mM (inactive). `OC1CCN(c2nccc(C(F)(F)F)n2)CC1`: the Kd was > 4 mM (inactive). The figure for `CSc1nnc2c(n1)OC=Nc1ccccc1-2` is > 4 mM (inactive). As to `CC(=O)Nc1ccc(-c2nc(C)c(C(C)=O)n2O)cc1`, the Kd was > 4 mM (inactive). `COC1=C(OC)C(=O)C(C/C=C(\C)CC/C=C(\C)CC/C=C(\C)CC/C=C(/C)CC/C=C(\C)CC/C=C(\C)CC/C=C(\C)CC/C=C(\C)CC/C=C(\C)CCC=C(C)C)=C(C)C1=O`: the Kd was > 4 mM (inactive). For `CCOC(=O)c1c(C)[nH]c2ccc(O)cc12` the value was > 4 mM (inactive); for `NC(=O)c1ccccc1N1CCCCC1`, > 4 mM (inactive).

Regarding `Cc1noc(-c2ccccc2)c1CO`, the Kd was > 4 mM (inactive).

With `O=C1N=c2ccccc2=C1c1[nH]c(=S)[nH]c1O`, the Kd was > 4 mM (inactive). The figure for `O=C(Nc1ccccc1F)c1ccncc1` is > 4 mM (inactive); for `Cc1ccc(C)n1-c1ccc(C(=O)N2CCOCC2)cc1` it is > 4 mM (inactive); for `NC1=NC(=O)/C(=C\c2ccco2)S1` it is > 4 mM (inactive).

With `O=C(O)c1ccc(-c2cnco2)cc1`, the Kd was > 4 mM (inactive). The figure for `OC[C@H]1O[C@@](CO)(O[C@@H]2O[C@H](CO)[C@@H](O)[C@H](O)[C@H]2O)[C@@H](O[C@@H]2O[C@H](CO)[C@@H](O)[C@H](O)[C@H]2O)[C@@H]1O` is > 4 mM (inactive); for `c1csc(-c2nnc3ccccn23)c1` it is > 4 mM (inactive). The figure for `CCOC(=O)c1cnc2sccn2c1=O` is > 4 mM (inactive); for `CC(=O)Nc1ccc(-c2cn3ccsc3n2)cc1` it is > 4 mM (inactive). Regarding `NCCN=C1NS(=O)(=O)c2ccccc21`, the Kd is > 4 mM (inactive). For `CC1(C)Cc2c(C#N)c(N)n(-c3ccccc3)c(=O)c2CO1` the value was > 4 mM (inactive); for `CC(=O)N1CCc2cc(NC(=O)c3ccc(C)cc3)ccc21`, > 4 mM (inactive). For `Nc1nc2n(c1C(=O)c1ccccc1)CCC2` the value was > 4 mM (inactive); for `CCn1cnc(C(=O)NC)c1C(=O)NC`, > 4 mM (inactive); for `NNc1ncnc2sccc12`, > 4 mM (inactive). In the case of `c1ccc(-c2nnc(CNCc3ccco3)o2)cc1`, the Kd is > 4 mM (inactive). For `NC(=O)c1cccc(Cl)n1` the value was > 4 mM (inactive); for `Cc1nc(CC(=O)O)c(-c2ccccc2)s1`, > 4 mM (inactive); for `NC(=O)Cn1nc2c3c(cccc3c1=O)-c1ccccc1-2`, > 4 mM (inactive). For `COc1cc(O)c2c(c1)C(=O)c1cc(C)cc(O)c1C2=O` the value was > 4 mM (inactive). For `O=c1c(O)c(-c2ccccc2)oc2ccc3occc3c12` the value was > 4 mM (inactive). For `CCCCCCCCCCCCCCCCCCOCC(O)CO` (configuration not stated), the Kd was > 4 mM (inactive).

As to `CC(C)n1c(Nn2cnnc2)nc2ccccc21`, the Kd is > 4 mM (inactive). As to `Nc1nnc(-c2ccncc2)s1`, the Kd is > 4 mM (inactive). In the case of `C=C1[C@H]2CC[C@@]3(C)[C@H](c4ccoc4)OC(=O)C[C@]13O[C@H]1C[C@H](O)C(C)(C)[C@H](CC(=O)OC)[C@]12C`, the Kd was > 4 mM (inactive). The figure for `Nc1[nH]c(=S)ncc1S(=O)(=O)c1ccccc1` is > 4 mM (inactive); for `CNc1nc(SC)nc(N2CCOCC2)n1` it is > 4 mM (inactive). `COC(=O)C1Cc2ccccc2N1` (configuration not stated): the Kd is > 4 mM (inactive).

As for `O=c1[nH]cc(N=Cc2ccc(F)cc2)c(=O)[nH]1`, the Kd is > 4 mM (inactive). The figure for `Cc1cc(C)n(-c2ccc(N)cc2)n1` is > 4 mM (inactive). The figure for `Cc1nn(C)c(C)c1NC(=S)NC1CCCC1` is > 4 mM (inactive); for `O=C(NCc1ccccc1Cl)c1cnn2cccnc12` it is > 4 mM (inactive). The figure for `O=C1CNC(=O)N1Cc1ccc(Br)cc1` is > 4 mM (inactive); for `Cc1occc1C(=O)N1CCC2(CC1)OCCO2` it is > 4 mM (inactive); for `NC(=O)c1oc2ccccc2c1N` it is > 4 mM (inactive). Take `Cc1c(-c2ccccc2)[n+](=O)c(-c2ccco2)c(C)n1[O-]`: the Kd was > 4 mM (inactive). As for `Cc1occc1C(=O)NCc1ccncc1`, the Kd was > 4 mM (inactive). For `CCC(C)C(=O)c1c(O)c(C)c2oc3c(C)c(O)c(C(=O)C(C)CC)c(O)c3c2c1O` (configuration not stated) the value was > 4 mM (inactive); for `C[C@]12CCC3C(CC[C@H]4C[C@@H](O)CC[C@]34C)C1CCC2=O` (some centres not stated), > 4 mM (inactive); for `Cn1c(NCC(=O)O)nc2c1c(=O)[nH]c(=O)n2C`, > 4 mM (inactive). With `COc1c(F)c(F)c(-c2csc(N)n2)c(F)c1F`, the Kd was > 4 mM (inactive). The figure for `Cc1ccc(C(=O)Nc2nnc(-c3ccncc3)s2)o1` is > 4 mM (inactive); for `C[n+]1cccc(C(=O)[O-])c1` it is > 4 mM (inactive). For `Clc1ccccc1OCCn1ccnc1` the value was > 4 mM (inactive); for `O=C(Cc1ccc(F)cc1)Nc1ncccn1`, > 4 mM (inactive). The figure for `C=CCc1ccc(OC(=O)c2ccccc2)c(OC)c1` is > 4 mM (inactive). In the case of `COc1ccc(NC(=O)CSc2nccc(=O)[nH]2)cc1`, the Kd was > 4 mM (inactive). The figure for `NC(=O)Cn1nc(-c2ccc(F)cc2)ccc1=O` is > 4 mM (inactive); for `O=C(Nc1ccncc1)c1cncc(Br)c1` it is > 4 mM (inactive). For `O=C1OC(N2CCOCC2)c2ccccc21` (configuration not stated) the value was > 4 mM (inactive).

With `Cc1cc(C(F)(F)F)n2nc(C(=O)O)c(Cl)c2n1`, the Kd is > 4 mM (inactive). For `O=C(O)Cc1n[nH]c(=O)c2ccccc12` the value was > 4 mM (inactive); for `NC(=O)CN1CC(c2ccccc2)CC1=O` (configuration not stated), > 4 mM (inactive). In the case of `COc1ccc(-c2ccc(SCC(N)=O)nn2)cc1`, the Kd is > 4 mM (inactive).

On to `Cc1csc(NC(=O)c2ccoc2C)n1`, for which the Kd was > 4 mM (inactive).

For `O=C(c1cc2ccccc2o1)c1nc2c(n1O)CCCCC2`, the Kd is > 4 mM (inactive). For `CC(C)=CC1C(CO)C1(C)C` (configuration not stated) the value was > 4 mM (inactive). The figure for `CC12CN3CC(C)(CN(C1)C3c1cccs1)C2O` (configuration not stated) is > 4 mM (inactive); for `CN(C)S(=O)(=O)c1ccc(N2CCOCC2)nc1` it is > 4 mM (inactive); for `O=c1c(-c2ccco2)[n+]([O-])c2ccccc2n1O` it is > 4 mM (inactive). `CSc1ncc(C(=O)O)n1Cc1ccccc1`: the Kd is > 4 mM (inactive). The figure for `O=C1C=CC(=O)c2c(O)cccc21` is > 4 mM (inactive); for `C=C1C2CC[C@@]3(C)[C@H](c4ccoc4)OC(=O)C[C@]13O[C@H]1C[C@H](OC(C)=O)C(C)(C)[C@H](CC(=O)OC)[C@@]21C` it is > 4 mM (inactive); for `O=C1C=CC(=O)N1c1ccc(N2CCOCC2)cc1` it is > 4 mM (inactive).

`Nc1cc(F)ccc1-n1ccnc1`: the Kd was > 4 mM (inactive).

On to `CCC(CCC(C)[C@H]1CCC2C3CC=C4C[C@@H](O)CC[C@]4(C)C3CC[C@@]21C)C(C)C` (some centres not stated), for which the Kd was > 4 mM (inactive). On to `Nc1cccnc1Oc1ccc(F)cc1F`, for which the Kd is > 4 mM (inactive). For `O=C(O)c1cncc(-c2cccs2)c1` the value was > 4 mM (inactive); for `O=C(CS(=O)(=O)c1ccccc1)N1CCCCCC1`, > 4 mM (inactive); for `COc1cc(C2NC(=S)NC(C)=C2C(C)=O)ccc1O` (configuration not stated), > 4 mM (inactive). For `COc1cc2c(c(OC)c1OC)-c1ccc(OC)c(=O)cc1[C@@H](NC(C)=O)CC2` the value was > 4 mM (inactive).

These data come from PubChem BioAssay AID1648 (Sanford-Burnham Center for Chemical Genomics, 2009).
